Publication PMC11845477, “Exploring the principles behind antibiotics with limited resistance” (Nature Communications, 2025)

Assays:
[1] = system: mutated genes in antibiotic-adapted lines; test: Whole genome sequencing and comparative mutational analysis of adapted lines; details: lines adapted in laboratory evolution
Text: We focused on the resistance mechanisms of DT permeabilizers and ST permeabilizers (Fig. 5a), as these antibiotics commonly disintegrate the bacterial membrane, and therefore the resistance mechanisms may overlap.
Genes are categorized based on their cellular localization using PSORT (Protein Subcellular Localization Prediction Tool). They are further classified according to their involvement in specific metabolic or resistance pathways using the KEGG (Kyoto Encyclopedia of Genes and Genomes) and COG (Clusters of Orthologous Genes) databases.
To identify potential antibiotic resistance mutations, we selected 2 to 5 lines from the frequency-of-resistance (FoR) and adaptive laboratory evolution (ALE) experiments for whole genome sequencing. Resistant populations were grown overnight in antibiotic-free medium, and DNA was isolated using the GenElute Bacterial Genomic DNA Kit (Sigma), following the manufacturer’s instructions. DNA was eluted in 120 µl of RNAse-free water over two elution steps, and 60 µl of the eluted DNA was further concentrated using the Zymo DNA Clean and Concentrator Kit. DNA concentration was measured with a Qubit Fluorometer and set to 1 ng/µl per sample. Sequencing libraries were prepared using the Nextera XT DNA library preparation kit (Illumina) and sequenced on an Illumina NextSeq 500 platform, generating 2 × 150 bp paired-end reads.
To identify and annotate variants, sequencing reads were mapped to their corresponding reference genomes using the Burrows-Wheeler Aligner (BWA)[75]. PCR duplicates were removed using Picard Mark Duplicates (see http://broadinstitute.github.io/picard) and reads with more than 6 mismatches were discarded. Variants (SNPs and INDELs) were called with Freebayes[76] and filtered using vcffilter[77], retaining only those with a quality score above 100. Rare variants were not excluded, but potential artefacts were manually inspected using IGV[78]. Variants were annotated with SnpEf, keeping only those absent in the ancestor. Mutations appearing in more than nine lines were excluded, as these were likely present in the ancestor. […]

[2] = system: polymyxin B-resistant lines of E. coli (EC-SEN); test: Cross-resistance of polymyxin B resistant evolved lines, relative MIC; assay type: cell-based, Escherichia coli
Protocol: 3 independently evolved lines from each investigated species were studied, including E. coli (EC), K. pneumoniae (KP), A. baumannii (AB), and P. aeruginosa (PA). […] The distances between antibiotics were computed using the Euclidean distance method based on the log-transformed MIC values. The clustering was performed using the complete linkage method. […] For detailed information on antibiotic and bacterial strain abbreviations, see Supplementary Data 1. Source data are provided as a Source Data file.
(§1) A robotic liquid handling system was used to automatically prepare a 11 to 16-step serial dilution in 384-well microtiter plates (Greiner). A final concentration of 5 × 10^5 bacterial cells per mL were inoculated into each well containing 60 µL MHB medium. Bacterial cultures were incubated at 37 °C with continuous shaking (Infors shaker, 900 rpm with 3 mm throw) for 18 hours (2 replicates from each). Cell growth was monitored by measuring the optical density (OD600 values, using Biotek Synergy microplate reader). MIC was defined as the antibiotic concentration of complete growth inhibition (i.e., OD600 < 0.05). Relative MIC was calculated as follows:1 relativeMIC=MICevolved/MICancestor […]
Each data point represents a distinct
Boxplots show the median, first and third quartiles, with whiskers showing the 5th and 95th percentiles. P values were calculated using Dunn's post-hoc test with Benjamini-Hochberg correction (NS indicates p > 0.05, ** / **** indicates p < 0.01 […]
(§2) For detailed information on antibiotic and bacterial strain abbreviations, see Supplementary Table 1. Source data are provided as a Source […]
(§3) (1 picture or pasted object on this page, not shown here)

[3] = system: polymyxin B-resistant lines of A. baumannii (AB-SEN); test: as above; assay type: cell-based, Acinetobacter baumannii
Text: To further investigate potential overlaps in resistance mechanisms, we examined the extent of cross-resistance between polymyxin B and other antibiotics that target the bacterial membrane.
Fig. 7 Cross-resistance of polymyxin B resistant lines to ST and DT permeabilizer antibiotics. […] 3 independently evolved lines from each investigated species were studied, including E. coli (EC), K. pneumoniae (KP), A. baumannii (AB), and P. aeruginosa (PA). Gray color of the main heatmap indicates combinations not tested due to intrinsic resistance of ancestor strain. The additional heatmap to the right depicts genes mutated in each polymyxin B-adapted line and their involvement in specific cellular processes based on KEGG (Kyoto Encyclopedia of Genes and Genomes) and COG (Clusters of Orthologous Genes) databases. The distances between antibiotics were computed using the Euclidean distance method based on the log-transformed MIC values. The clustering was performed using the complete linkage method. […] For detailed information on antibiotic and bacterial strain abbreviations, see Supplementary Data 1. Source data are provided as a Source Data file.
as §1
Supplementary Figure 6. Susceptibility of Polymyxin B resistant lines to other ST and DT […]
dividing the MIC of the evolved line by that of the corresponding ancestor) of 12 polymyxin B resistant lines to ST and DT permeabilizer antibiotics used in this study. Each data point represents a distinct adaptive laboratory evolved polymyxin B resistant line. Boxplots show the median, first and third quartiles, with whiskers showing the 5th and 95th percentiles. P values were calculated using Dunn's post-hoc test with Benjamini-Hochberg correction (NS indicates p > 0.05, ** / **** indicates p < 0.01 / 0.0001, respectively). The resistance level of polymyxin B resistant lines to polymyxin B (PMB), […]
as §2, §3

[4] = system: P. aeruginosa ATCC BAA-3107 (SEN) and P. aeruginosa LESB58 (MDR); test: Adaptive laboratory evolution (ALE), relative MIC of evolved lines; assay type: cell-based, Pseudomonas aeruginosa; details: ALE, Pseudomonas aeruginosa ATCC BAA 3107 (PA-SEN)
Procedure, shortened: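 Ten parallel populations per antibiotic–ancestor pair were evolved in MHB at 37 °C, starting near 50% growth-inhibiting drug. Every 72 h they were passaged into 0.5–2.5× increasing concentrations, keeping the highest-drug well with OD600 > 0.2.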

[5] = EC-SEN, polymyxin B-resistant evolved line 4, MIC evolved/MIC ancestor
[6] = EC-SEN, polymyxin B-resistant evolved line 6, MIC evolved/MIC ancestor
[7] = EC-SEN, polymyxin B-resistant evolved line 10, MIC evolved/MIC ancestor
[8] = polymyxin B-resistant evolved line 4 of EC-SEN, MIC relative to ancestor
[9] = polymyxin B-resistant evolved line 6 of EC-SEN, MIC relative to ancestor
[10] = polymyxin B-resistant evolved line 10 of EC-SEN, MIC relative to ancestor
[11] = AB-SEN, polymyxin B-resistant evolved line 2, MIC evolved/MIC ancestor
[12] = AB-SEN, polymyxin B-resistant evolved line 6, MIC evolved/MIC ancestor
[13] = AB-SEN, polymyxin B-resistant evolved line 9, MIC evolved/MIC ancestor
[14] = polymyxin B-resistant evolved line 2 of AB-SEN, MIC relative to ancestor
[15] = polymyxin B-resistant evolved line 6 of AB-SEN, MIC relative to ancestor
[16] = polymyxin B-resistant evolved line 9 of AB-SEN, MIC relative to ancestor

Compound	overlap in the set of mutated genes associated with ST permeabilizers [1] [%]	Relative MIC [2, 5]	Relative MIC [2, 6]	Relative MIC [2, 7]	Relative MIC [2, 8]	Relative MIC [2, 9]	Relative MIC [2, 10]	Relative MIC [3, 11]	Relative MIC [3, 12]	Relative MIC [3, 13]	Relative MIC [3, 14]	Relative MIC [3, 15]	Relative MIC [3, 16]	Relative MIC ([4]; evolved line 1)	Relative MIC ([4]; evolved line 2)	Relative MIC ([4]; evolved line 3)	Relative MIC ([4]; evolved line 4)	Relative MIC ([4]; evolved line 6)	Relative MIC ([4]; evolved line 8)
CC(C)c1ccc(Cn2ccc3c4c(N)nc(NC5CC5)nc4ccc32)cc1 [SCH79797]	0.6	1	1	1	1	1	1	1	0.5	1	1	0.5	1	–	–	–	–	–	–
POL7306	8.12	1	2	2	1	2	2	32	32	8	32	32	8	2	2	2	2	2	2
Tridecaptin M152-P3	2.5	–	–	–	–	–	–	–	–	–	–	–	–	–	–	–	–	–	–
